Measurements: ChEMBL document CHEMBL5226342, “Novel Reversible-Binding PET Ligands for Imaging Monoacylglycerol Lipase Based on the Piperazinyl Azetidine Scaffold” (J Med Chem, 2021)

Tests used:
[1] = Metabolic stability of the compound in iv dosed Sprague-Dawley rat brain assessed as parent compound remaining measured after 60 mins by radio-HPLC analysis; type: ADME, organism-based; settings: read-out: Stability
[2] = Drug uptake in iv dosed CD-1 mouse small intestine measured after 60 mins by Ex vivo whole body biodistribution based analysis; type: ADME, organism-based; settings: 1 h
[3] = Drug uptake in iv dosed rhesus monkey brain by PET imaging based analysis; type: ADME, organism-based, Macaca mulatta; settings: in vivo
[4] = Drug uptake in iv dosed Sprague-Dawley rat hippocampus measured for 90 mins by PET imaging based analysis; type: ADME, organism-based; settings: in vivo, 1.5 h
[5] = Drug uptake in iv dosed rhesus monkey hippocampus measured after 60 mins by PET imaging based analysis; type: ADME, organism-based, Macaca mulatta; settings: in vivo, 1 h
[6] = Drug uptake in iv dosed rhesus monkey cortex measured after 60 mins by PET imaging based analysis; type: ADME, organism-based, Macaca mulatta; settings: in vivo, 1 h
[7] = Drug uptake in iv dosed Sprague-Dawley rat pons measured for 90 mins by PET imaging based analysis; type: ADME, organism-based; settings: in vivo, 1.5 h
[8] = Drug uptake in iv dosed rhesus monkey striatum by PET imaging based analysis; type: ADME, organism-based, Macaca mulatta; settings: in vivo
[9] = Drug uptake in iv dosed CD-1 mouse kidney measured after 60 mins by Ex vivo whole body biodistribution based analysis; type: ADME, organism-based; settings: 1 h
[10] = Drug uptake in iv dosed rhesus monkey cortex by PET imaging based analysis; type: ADME, organism-based, Macaca mulatta; settings: in vivo
[11] = Drug uptake in iv dosed rhesus monkey pons by PET imaging based analysis; type: ADME, organism-based, Macaca mulatta; settings: in vivo
[12] = Drug uptake in iv dosed rhesus monkey cortex pretreated with MAGL inhibitor, […] PET imaging based analysis; type: ADME, organism-based, Macaca mulatta; settings: in vivo
[13] = Drug uptake in iv dosed CD-1 mouse liver measured after 60 mins by Ex vivo whole body biodistribution based analysis; type: ADME, organism-based; settings: 1 h
[14] = Metabolic stability of the compound in iv dosed Sprague-Dawley rat plasma assessed as parent compound remaining measured after 60 mins by radio-HPLC analysis; type: ADME, organism-based; settings: read-out: Stability
[15] = Drug uptake in iv dosed rhesus monkey hippocampus pretreated with MAGL inhibitor, […] PET imaging based analysis; type: ADME, organism-based, Macaca mulatta; settings: in vivo
[16] = Drug uptake in iv dosed Sprague-Dawley rat cerebral cortex measured for 90 mins by PET imaging based analysis; type: ADME, organism-based; settings: in vivo, 1.5 h
[17] = Drug uptake in iv dosed rhesus monkey striatum pretreated with MAGL inhibitor, […] PET imaging based analysis; type: ADME, organism-based, Macaca mulatta; settings: in vivo
[18] = Drug uptake in iv dosed Sprague-Dawley rat striatum measured for 90 mins by PET imaging based analysis; type: ADME, organism-based; settings: in vivo, 1.5 h
[19] = Drug uptake in iv dosed rhesus monkey cerebellum pretreated with MAGL inhibitor, […] PET imaging based analysis; type: ADME, organism-based, Macaca mulatta; settings: in vivo
[20] = Drug uptake in iv dosed rhesus monkey striatum measured after 60 mins by PET imaging based analysis; type: ADME, organism-based, Macaca mulatta; settings: in vivo, 1 h
[21] = Drug uptake in iv dosed CD-1 mouse pancreas measured after 60 mins by Ex vivo whole body biodistribution based analysis; type: ADME, organism-based; settings: 1 h
[22] = Drug uptake in iv dosed CD-1 mouse lung measured after 60 mins by Ex vivo whole body biodistribution based analysis; type: ADME, organism-based; settings: 1 h
[23] = Drug uptake in mouse brain treated with MAGL inhibitor, JNJ-42226314 at 15 mins post-drug administration by PET imaging based analysis; type: ADME, tissue-based; settings: in vivo, 0.25 h
[24] = Drug uptake in iv dosed rhesus monkey pons measured after 60 mins by PET imaging based analysis; type: ADME, organism-based, Macaca mulatta; settings: in vivo, 1 h
[25] = Drug uptake in iv dosed rhesus monkey cerebellum measured after 60 mins by PET imaging based analysis; type: ADME, organism-based, Macaca mulatta; settings: in vivo, 1 h
[26] = Drug uptake in iv dosed rhesus monkey hippocampus by PET imaging based analysis; type: ADME, organism-based, Macaca mulatta; settings: in vivo
[27] = Drug uptake in iv dosed Sprague-Dawley rat cerebellum measured for 90 mins by PET imaging based analysis; type: ADME, organism-based; settings: in vivo, 1.5 h
[28] = Drug uptake in iv dosed rhesus monkey cerebellum by PET imaging based analysis; type: ADME, organism-based, Macaca mulatta; settings: in vivo
[29] = Drug uptake in iv dosed CD-1 mouse heart measured after 60 mins by Ex vivo whole body biodistribution based analysis; type: ADME, organism-based; settings: 1 h
[30] = Metabolic stability of the compound in iv dosed Sprague-Dawley rat plasma assessed as parent compound remaining measured after 30 mins by radio-HPLC analysis; type: ADME, organism-based; settings: read-out: Stability
[31] = Metabolic stability of the compound in iv dosed Sprague-Dawley rat brain assessed as parent compound remaining measured after 30 mins by radio-HPLC analysis; type: ADME, organism-based; settings: read-out: Stability

remaining at 1 h [1]: 98%
Drug uptake [2]: Active
SUVmax [3]: 1.2
Drug uptake [4]: Active
Drug uptake [5]: Active
Drug uptake [6]: Active
Drug uptake [7]: Active
Drug uptake [8]: Active
Drug uptake [9]: Not Active
Drug uptake [10]: Active
Drug uptake [11]: Active
Drug uptake [12]: Not Active
Drug uptake [13]: Active
remaining at 1 h [14]: 40%
Drug uptake [15]: Not Active
SUVmax [16]: 1.4
Drug uptake [17]: Not Active
Drug uptake [18]: Active
Drug uptake [19]: Not Active
Drug uptake [20]: Active
Drug uptake [21]: Not Active
Drug uptake [22]: Not Active
Drug uptake [23]: Not Active
Drug uptake [24]: Not Active
Drug uptake [25]: Active
Drug uptake [26]: Active
Drug uptake [27]: Active
Drug uptake [28]: Active
Drug uptake [29]: Not Active
remaining at 0.5 h [30]: 53%
remaining at 0.5 h [31]: 95%
SMILES: O=C(c1ccc2c(ccn2-c2ccc([18F])cc2)c1)N1CC(N2CCN(c3ncccn3)CC2)C1
